Test results as given in US20150141485A1, “PROGNOSIS AND TREATMENT OF LUNG CANCER USING miRNA-135b” (NATIONAL CHENG KUNG UNIVERSITY, priority 2013, published 2015).
Oligonucleotides are written 5' to 3', each unit as a sugar letter and its base; * is a phosphorothioate linkage, no mark a phosphodiester; rarer units and linkages stand in square brackets, end groups in braces. Plain capitals give the bases only. {Chol} = cholesterol; m = 2'-O-methyl

Columns and labels:
CL1-5 cells = assay: Orthotopic lung cancer model; type: in vivo, nude mice
Experimental: CL1-5 cells were implanted orthotopically into the left lungs of 6-weeks-old nude mice (n=9). A series of scramble antagomir (NC) or miR-135b antagomir (Antago-135b) intravenous injections were performed every 2 days after tumor cell implantation. Lungs were harvested 25 days after the cells were implanted. […] Arrows indicate the visible nodules. […] Data are expressed as mean±s.e.m. *P<0.05 by Student's t-test.
Mice bearing CL1-5 cells were subjected to scramble antagomir (NC) or miR-135b antagomir (Antago-135b) treatment. Animal survival was determine using Kaplan-Meier survival analysis and the log-rank test for data obtained 25 days after the cancer cells were orthotopically injected (n=9).
Next, the effects of miR-135b inhibition on tumor growth and metastasis in an orthotopic lung cancer model were checked. Seven intravenous injections of miR-135b antagomir were given 4 days after CL1-5 implantation.

[1] = system: pGL3-3′-UTRs of Hippo pathway genes; assay: Luciferase reporter assay, Hippo pathway 3'-UTRs; type: cell-based; conditions: CL1-0 cells co-transfected with miR-135b and pGL3-3′-UTRs, 60 hours
Experimental: CL1-0 cells co-transfected with miR-135b and pGL3-3′-UTRs with scramble (NC) or Antago-135b for 60 hours. Luciferase activity was assayed and is presented a described in FIG. 6a. Mean±s.d. is shown, *P<0.05; **P<0.005 by Student's t-test.
(§1) One day before transfection, CL1-0 cells were seeded at a concentration of 2.5×10^4 per well. Next, the pClneo vector or miR-135b plasmid was co-transfected with the pGL3-target gene-3′UTR. The Renilla lunciferase plasmid (phRL-TK, Promega, Madison, Wis.) was co-transfected as transfection control. Cells were lysed 36 hours after transfection, and luciferase activity was measured using a Dual-Luciferase system (Promega, Madison, Wis.) according to the manufacture's protocol.

LZTS1 3′-UTR = assay: Luciferase reporter assay, LZTS1 3'-UTR; type: cell-based; conditions: CL1-0 cells co-transfected with miR-135b, vs Scramble
Experimental: CL1-0 cells were co-transfected with miR-135b, wild-type LZTS1 3′-UTR along with Scramble or miR-135-specific antagomir (Antago-135b). Luciferase activity was measured and is presented as described in FIG. 5a. Mean±s.d. is shown, *P<0.05; **P<0.005 by Student's t-test.
as §1

CL141 cells = assay: Western blot of Hippo pathway proteins; type: cell-based; conditions: 72 hours
Experimental: (§2) Western bolt analysis of the Hippo pathway proteins in CL1-5-F4 and CL141 cells incubated with Scramble (NC) of Antago-135b for 72 hours. Quantitative RT-PCR was used to assay miR-135b knockdown activity.

UACC-257 cells = assay: Western blot of endogenous LZTS1; type: cell-based; conditions: 100 nM, 48 hours
Experimental: CL1-5-F4 and UACC-257 cells were administrated with 100 nM of negative control (NC) or antago-135b for 48 hours. Total cell lysates were harvested for western blot analysis.

CL1-5-F4 cells [2] = assay: Western blot of Hippo pathway proteins; type: cell-based, human; conditions: 72 hours
Experimental: as §2

Hop-62 cells = assay: Transwell invasion assay; type: cell-based; conditions: Hop-62 cells transfected 48 hours, vs scramble (NC)
Experimental: (§3) CL1-5-F4 and Hop-62 cells were transfected with scramble (NC) of miR-135b-specific antagomir (Antago-135b) for 48 hours and the subjected to migration assays (FIG. 2d) and invasion assays (FIG. 2e) as described above. *P<0.05;**P<0.005 by Student's t-test.
Transwell chambers ([…], BD Falcon, Franklin Lakes, N.J.) were coated with the appropriate amount of Matrigel (BD Biosciences, San Jose, Calif.). Next, 2.5×10^4 cells were suspended in NuSerum-containing media (Gibco BRL, Grand Island N.Y., USA), seeded in the chamber and cultured, Cells that invaded the chamber from top to bottom were fixed with methanol and stained with a solution of propidium iodine (Sigma-Aldrich, St. Louis, Mo.). The propidiumiodine-positive signal was quantified using Analytical Imaging Station software package. Each sample was assayed in triplicate.

CL1-5-F4 cells [3] = assay: Migration assay (culture inserts); type: cell-based, human; conditions: CL1-5-F4 cells transfected 48 hours, vs scramble (NC)
Experimental: as §3
For the migration assay, culture inserts (Ibidi, Munich, Germany) were inserted into 60-mm dishes. Next, the cell suspensions were seeded in each culture insert well at a concentration of 2.5×10^4 (CL1-0) or 3×10^4 (CL1-5-F4 and UACC-257) cells/mL. The culture inserts were removed to leave a gap of approximately 500 μm.

[4] = seven i.v. injections, 4 days after CL1-5 implantation, vs control lungs

5′mU(*)mC(*)mAmCmAmUmAmG-mGmAmAmUmGmAmAmAmAmGmCmC(*)mA(*)mU(*)mA(*)(3′-Ch1)3′ (SEQ ID NO:8) (mU*mC*mAmCmAmUmAmGmGmAmAmUmGmAmAmAmAmGmCmC*mA*mU*mA*{Chol}) [miR-135b antagomir]
orthotopic tumor growth (CL1-5 cells; [4]): inhibited orthotopic tumor growth
volume of lung metastases (CL1-5 cells; [4]): decrease the volume of lung metastases
survival rates (CL1-5 cells; systemic delivery in orthotopic tumor-bearing mice): increased survival rates
miR-135b-induced reporter activity [1]: decrease
suppressive effects of miR-135b on LZTS1 3′-UTR-carrying luciferase (LZTS1 3′-UTR): significantly reduced
LATS2, β-TrCP and NDR2 expressions (CL141 cells): induced
TAZ protein expression (CL141 cells): reduced
LZTS1 expression (UACC-257 cells): significantly increased
LATS2, β-TrCP and NDR2 expressions (CL1-5-F4 cells [2]): induced
TAZ protein expression (CL1-5-F4 cells [2]): reduced
invasive ability (Hop-62 cells): inhibited these changes
migratory ability (CL1-5-F4 cells [3]): inhibited these changes
